Counter-ions that a name gives are not always drawn.

Turning to `FC(F)(F)Oc1ccc(COc2nsnc2OC2CN3CCC2C3)cc1` (stereo not drawn) (as salt: oxalate) [Compound 14, Endo 3-(3-[4-trifluoromethoxybenzyloxy]-1,2,5-thiadiazol-4-yloxy)-1-azabicyclo[2.2.1]heptane, oxalate], the melting point – broadly, the temperature, or range, at which the solid turns liquid – is 116 to 119 °C.

In turn, `FC(F)(F)CCCOc1nsnc1OC1CN2CCC1C2` (stereo not drawn) (as salt: oxalate) [Compound 15, Endo 3-(3-[4,4,4-trifluorobutyl-1-oxy]-1,2,5-thiadiazol-4-yloxy)-1-azabicyclo[2.2.1]heptane, oxalate] returned a melting point of 135 to 137 °C.

For `FC(F)(F)CCCSc1nsnc1OC1CN2CCC1C2` (stereo not drawn) (as salt: oxalate) [Compound 30, Endo 3-(3-(4,4,4-trifluorobutylthio)-1,2,5-thiadiazol-4-yloxy)-1-azabicyclo-[2.2.1]heptane, oxalate], the melting point lay in the range of 114 to 115 °C.

`N#Cc1ccc(CSc2nsnc2OC2CN3CCC2C3)cc1` (stereo not drawn) (as salt: oxalate) [Compound 31, Endo 3-(3-[4-cyanobenzylthio]-1,2,5-thiadiazol-4-yloxy)-1-azabicyclo-[2.2.1]heptane, oxalate]: the melting point was in the range of 196 to 197 °C.

As to `Fc1cc(C(F)(F)F)ccc1COc1nsnc1OC1CN2CCC1C2` (stereo not drawn) (as salt: oxalate) [Compound 16, Endo 3-(3-[2-fluoro-4-(trifluoromethyl)-benzyloxy]-1,2,5-thiadiazol-4-yloxy)-1-azabicyclo[2.2.1]heptane, oxalate], the melting point was 112 to 114 °C.

With `COc1cccc(C#CC(C)Oc2nsnc2OC2CN3CCC2C3)c1` (stereo not drawn) (as salt: oxalate) [Compound 17, Endo 3-(3-[4-(3-methoxyphenyl)-3-butyn-2-yloxy]-1,2,5-thiadiazol-4-yloxy)-1-azabicyclo[2.2.1]heptane, oxalate], the melting point lay within 102 to 103 °C.

For `COCCOc1nsnc1OC1CN2CCC1C2` (stereo not drawn) (as salt: oxalate) [Compound 13, Endo 3-(3-methoxyethoxy-1,2,5-thiadiazol-4-yloxy)-1-azabicyclo[2.2.1]heptane, oxalate], the melting point was in the range of 139 to 141 °C.

Take `FCCSc1nsnc1OC1CN2CCC1C2` (stereo not drawn) (as salt: oxalate) [Compound 34, Endo 3-(3-[2-fluoroethyl-1-thio]-1,2,5-thiadiazol-4-yloxy)-1-azabicyclo-[2.2.1]heptane, oxalate]: the melting point is 131 to 133 °C.

`FC(F)(F)c1cccc(C#CCOc2nsnc2OC2CN3CCC2C3)c1` (stereo not drawn) (as salt: oxalate) [Compound 20, Endo 3-(3-(3-(3-trifluoromethylphenyl)-2-propynyl-1-oxy)-1,2,5-thiadiazol-4-yloxy)-1-azabicyclo[2.2.1]heptane, oxalate] gave a melting point of 131 to 135 °C.

`C(#Cc1ccoc1)COc1nsnc1OC1CN2CCC1C2` (stereo not drawn) (as salt: oxalate) [Compound 26, Endo 3-(3-(3-(3-furyl)-2-propyn-1-yloxy)-1,2,5-thiadiazol-4-yloxy)-1-azabicyclo[2.2.1]heptane, oxalate] gave a melting point of 146 to 148 °C.

`C(#Cc1ccccn1)COc1nsnc1OC1CN2CCC1C2` (stereo not drawn) (as salt: oxalate) [Compound 25, Endo 3-(3-(2-pyridyl)-2-propyn-1-yloxy)-1,2,5-thiadiazol-4-yloxy)-1-azabicyclo[2.2.1]heptane, dioxalate] had a melting point of 158 to 160 °C.

`Fc1ccc(COc2nsnc2OC2CN3CCC2C3)cc1` (stereo not drawn) (as salt: oxalate) [Compound 9, Endo 3-(3-[4-fluorobenzyloxy]-1,2,5-thiadiazol-4-yloxy)-1-azabicyclo-[2.2.1]heptane, oxalate]: the melting point was in the range of 144 to 145 °C.

Turning to `FC(F)(F)COc1nsnc1OC1CN2CCC1C2` (stereo not drawn) (as salt: oxalate) [Compound 40, Endo 3-(3-[2,2,2-trifluoroethyl-1-oxy]-1,2,5-thiadiazol-4-yloxy)-1-azabicyclo[2.2.1]heptane, oxalate], the melting point was in the range of 153 to 156 °C.

As for `C(#Cc1cccnc1)COc1nsnc1OC1CN2CCC1C2` (stereo not drawn) (as salt: oxalate) [Compound 23, Endo 3-(3-(3-pyridyl)-2-propyn-1-yloxy)-1,2,5-thiadiazol-4-yloxy)-1-azabicyclo[2.2.1]heptane, dioxalate], the melting point was 136 to 139 °C.

The molecule `Clc1ccc(C#CCOc2nsnc2OC2CN3CCC2C3)cc1` (stereo not drawn) (as salt: oxalate) [Compound 18, Endo 3-(3-[3-(4-chlorophenyl)-2-propynyl-1-oxy]-1,2,5-thiadiazol-4-yloxy)-1-azabicyclo[2.2.1]heptane, oxalate] yielded a melting point of 118 to 122 °C.

With `CCC(C#Cc1cccc(OC)c1)Oc1nsnc1OC1CN2CCC1C2` (stereo not drawn) (as salt: oxalate) [Compound 19, Endo 3-(3-[1-(3-methoxyphenyl)-1-pentyn-3-yloxy]-1,2,5-thiadiazol-4-yloxy)-1-azabicyclo[2.2.1]heptane, oxalate], the melting point was 98 to 101 °C.

`Fc1cccc(C#CCOc2nsnc2OC2CN3CCC2C3)c1` (stereo not drawn) (as salt: oxalate) [Compound 28, Endo 3-(3-(3-(3-fluorophenyl)-2-propyn-1-yloxy)-1,2,5-thiadiazol-4-yloxy-1-azabicyclo[2.2.1]heptane, oxalate] showed a melting point of 175 to 177 °C.

With `CC=CCOc1nsnc1OC1CN2CCC1C2` (stereo not drawn) (as salt: oxalate) [Compound 10, Endo 3-(3-[2-butenyl-1-oxy]-1,2,5-thiadiazol-4-yloxy)-1-azabicyclo[2.2.1]heptane, oxalate], the melting point was in the range of 129 to 131 °C.

For `CCCSc1nsnc1OC1CN2CCC1C2` (stereo not drawn) (as salt: oxalate) [Compound 2, Endo 3-(3-propylthio-1,2,5-thiadiazol-4-yloxy)-1-azabicyclo[2.2.1]heptane, oxalate], the melting point is 136 to 137 °C.

As for `C1CC(COc2nsnc2OC2CN3CCC2C3)C1` (stereo not drawn) (as salt: oxalate) [Compound 41, Endo 3-(3-cyclobutylmethyloxy-1,2,5-thiadiazol-4-yloxy)-1-azabicyclo-[2.2.1]heptane, oxalate], the melting point lay within 96 to 99 °C.

In turn, `CC#CCOc1nsnc1OC1CN2CCC1C2` (stereo not drawn) (as salt: oxalate) [Compound 11, Endo 3-(3-[2-butynyl-1-oxy]-1,2,5-thiadiazol-4-yloxy)-1-azabicyclo[2.2.1]heptane, oxalate] yielded a melting point of 194 to 196 °C.

In the case of `CSCCOc1nsnc1OC1CN2CCC1C2` (stereo not drawn) (as salt: oxalate) [Compound 12, Endo 3-(3-methylthioethoxy-1,2,5-thiadiazol-4-yloxy)-1-azabicyclo-[2.2.1]heptane, oxalate], the melting point was in the range of 117 to 119 °C.

`Fc1ccc(CSc2nsnc2OC2CN3CCC2C3)c(F)c1` (stereo not drawn) (as salt: oxalate) [Compound 33, Endo 3-(3-[2,4-difluorobenzylthio]-1,2,5-thiadiazol-4-yloxy)-1-azabicyclo-[2.2.1]heptane, oxalate] gave a melting point of 98 to 100 °C.

Values taken from patent US6720342B2, “Heterocyclic compounds and their preparation and use” (Novo Nordisk A/S, priority 1996, dated 2004).
